Drawing on ChEMBL document CHEMBL3822457, “Synthesis and biological analysis of novel glycoside derivatives of l-AEP, as targeted antibacterial agents” (2016), this text covers MIC and Activity for two compounds.

As a reminder, the MIC is the lowest concentration found to suppress growth.

Structures are written as SMILES. The source made the active and inactive calls. No cut-off for these calls is given here.

For experiment [1], the system named is Pseudomonas aeruginosa. Description: Antibacterial activity against Pseudomonas aeruginosa ATCC 27853 in presence of DM1 at pH 6.9. It counts as functional.
Experiment [2] has as its system Proteus mirabilis. Description: Antibacterial activity against Proteus mirabilis ATCC 14253 in presence of DM1 at pH 6.9. Type of experiment: functional.
The test system of experiment [3] is Klebsiella pneumoniae. Description: Antibacterial activity against Klebsiella pneumoniae ATCC 13882 in presence of DM1 at pH 6.9. Type of experiment: functional.
In experiment [4] the test system is Cronobacter sakazakii. Description: Antibacterial activity against Cronobacter sakazakii ATCC 29544 in presence of DM1 at pH 6.9. It counts as functional.
Experiment [5] relates to Klebsiella aerogenes. Description: Antibacterial activity against Enterobacter aerogenes ATCC 13048 in presence of DM1 at pH 6.9. Type of experiment: functional.
The test system of experiment [6] is Salmonella typhimurium. Description: Antibacterial activity against Salmonella enterica serovar Typhimurium ATCC 14028 in presence of DM1 at pH 6.9. It counts as functional, Salmonella enterica subsp. enterica serovar Typhimurium.
A short description of experiment [7]: Antibacterial activity against Salmonella enterica serovar Virchow ATCC 5742 in presence of DM1 at pH 6.9. Type of experiment: functional, Salmonella enterica subsp. enterica serovar Virchow.
For experiment [8], the system named is Serratia marcescens. Description: Antibacterial activity against Serratia marcescens ATCC 13880 in presence of DM1 at pH 6.9. It counts as functional. The conditions noted are these: subsp. marcescens ATCC 13880.
Experiment [9] relates to Klebsiella aerogenes. Description: Antibacterial activity against Enterobacter aerogenes ATCC 13048 in presence of DM1 at pH 7.2. It counts as functional.
For experiment [10], the system named is Cronobacter sakazakii. Description: Antibacterial activity against Cronobacter sakazakii ATCC 29544 in presence of DM1 at pH 7.2. Type of experiment: functional.
For experiment [11], the system named is Klebsiella pneumoniae. Description: Antibacterial activity against Klebsiella pneumoniae ATCC 13882 in presence of DM1 at pH 7.2. Type of experiment: functional.
Experiment [12] relates to Proteus mirabilis. Description: Antibacterial activity against Proteus mirabilis ATCC 14253 in presence of DM1 at pH 7.2. Type of experiment: functional.
Experiment [13] deals with Pseudomonas aeruginosa. Description: Antibacterial activity against Pseudomonas aeruginosa ATCC 27853 in presence of DM1 at pH 7.2. Type of experiment: functional.
The subject of experiment [14] is Salmonella typhimurium. Description: Antibacterial activity against Salmonella enterica serovar Typhimurium ATCC 14028 in presence of DM1 at pH 7.2. Type of experiment: functional, Salmonella enterica subsp. enterica serovar Typhimurium.
Experiment [15] in a line: Antibacterial activity against Salmonella enterica serovar Virchow ATCC 5742 in presence of DM1 at pH 7.2. Type of experiment: functional, Salmonella enterica subsp. enterica serovar Virchow.
Experiment [16] concerns Serratia marcescens. Description: Antibacterial activity against Serratia marcescens ATCC 13880 in presence of DM1 at pH 7.2. Type of experiment: functional. The conditions noted are these: subsp. marcescens ATCC 13880.
Experiment [17] relates to Klebsiella aerogenes. Description: Antibacterial activity against Enterobacter aerogenes ATCC 13048 in presence of DM1 and glucose at pH 7.2. Type of experiment: functional.
Experiment [18] relates to Cronobacter sakazakii. Description: Antibacterial activity against Cronobacter sakazakii ATCC 29544 in presence of DM1 and glucose at pH 7.2. Type of experiment: functional.
For experiment [19], the system named is Klebsiella pneumoniae. Description: Antibacterial activity against Klebsiella pneumoniae ATCC 13882 in presence of DM1 and glucose at pH 7.2. It counts as functional.
For experiment [20], the system named is Proteus mirabilis. Description: Antibacterial activity against Proteus mirabilis ATCC 14253 in presence of DM1 and glucose at pH 7.2. Type of experiment: functional.
The test system of experiment [21] is Pseudomonas aeruginosa. Description: Antibacterial activity against Pseudomonas aeruginosa ATCC 27853 in presence of DM1 and glucose at pH 7.2. Type of experiment: functional.
Experiment [22] relates to Salmonella typhimurium. Description: Antibacterial activity against Salmonella enterica serovar Typhimurium ATCC 14028 in presence of DM1 and glucose at pH 7.2. It counts as functional, Salmonella enterica subsp. enterica serovar Typhimurium.
Experiment [23] in a line: Antibacterial activity against Salmonella enterica serovar Virchow ATCC 5742 in presence of DM1 and glucose at pH 7.2. Type of experiment: functional, Salmonella enterica subsp. enterica serovar Virchow.
The test system of experiment [24] is Serratia marcescens. Description: Antibacterial activity against Serratia marcescens ATCC 13880 in presence of DM1 and glucose at pH 7.2. It counts as functional. The conditions noted are these: subsp. marcescens ATCC 13880.
The subject of experiment [25] is Klebsiella aerogenes. Description: Antibacterial activity against Enterobacter aerogenes ATCC 13048 in presence of NB2 medium at pH 7.2. It counts as functional.
For experiment [26], the system named is Cronobacter sakazakii. Description: Antibacterial activity against Cronobacter sakazakii ATCC 29544 in presence of NB2 medium at pH 7.2. Type of experiment: functional.
The test system of experiment [27] is Klebsiella pneumoniae. Description: Antibacterial activity against Klebsiella pneumoniae ATCC 13882 in presence of NB2 medium at pH 7.2. It counts as functional.
Experiment [28] has as its system Proteus mirabilis. Description: Antibacterial activity against Proteus mirabilis ATCC 14253 in presence of NB2 medium at pH 7.2. Type of experiment: functional.
For experiment [29], the system named is Pseudomonas aeruginosa. Description: Antibacterial activity against Pseudomonas aeruginosa ATCC 27853 in presence of NB2 medium at pH 7.2. Type of experiment: functional.
The subject of experiment [30] is Salmonella typhimurium. Description: Antibacterial activity against Salmonella enterica serovar Typhimurium ATCC 14028 in presence of NB2 medium at pH 7.2. Type of experiment: functional, Salmonella enterica subsp. enterica serovar Typhimurium.
Experiment [31] can be described thus: Antibacterial activity against Salmonella enterica serovar Virchow ATCC 5742 in presence of NB2 medium at pH 7.2. It counts as functional, Salmonella enterica subsp. enterica serovar Virchow.
For experiment [32], the system named is Serratia marcescens. Description: Antibacterial activity against Serratia marcescens ATCC 13880 in presence of NB2 medium at pH 7.2. The conditions noted are these: subsp. marcescens ATCC 13880. It counts as functional.
In experiment [33] the test system is Klebsiella aerogenes. Description: Antibacterial activity against Enterobacter aerogenes ATCC 13048 at 2 mg/ml in presence of DM1 and IPTG at pH 7.2. It counts as functional, organism-based.
The subject of experiment [34] is Cronobacter sakazakii. Description: Antibacterial activity against Cronobacter sakazakii ATCC 29544 at 2 mg/ml in presence of DM1 and IPTG at pH 7.2. Type of experiment: functional.
In experiment [35] the test system is Klebsiella pneumoniae. Description: Antibacterial activity against Klebsiella pneumoniae ATCC 13882 at 2 mg/ml in presence of DM1 and IPTG at pH 7.2. It counts as functional, organism-based.
Experiment [36] deals with Salmonella typhimurium. Description: Antibacterial activity against Salmonella enterica serovar Typhimurium ATCC 14028 at 2 mg/ml in presence of DM1 and IPTG at pH 7.2. The settings on record: Salmonella enterica subsp. enterica serovar Typhimurium. It counts as functional, organism-based.
The test system of experiment [37] is Salmonella enterica subsp. enterica serovar Virchow. Description: Antibacterial activity against Salmonella enterica serovar Virchow ATCC 5742 at 2 mg/ml in presence of DM1 and IPTG at pH 7.2. Type of experiment: functional.
In experiment [38] the test system is Klebsiella aerogenes. Description: Antibacterial activity against Enterobacter aerogenes ATCC 13048 at 2 mg/ml in presence of DM1 at pH 7.2 in absence of IPTG. It counts as functional, organism-based.
The subject of experiment [39] is Cronobacter sakazakii. Description: Antibacterial activity against Cronobacter sakazakii ATCC 29544 at 2 mg/ml in presence of DM1 at pH 7.2 in absence of IPTG. Type of experiment: functional.
The subject of experiment [40] is Klebsiella pneumoniae. Description: Antibacterial activity against Klebsiella pneumoniae ATCC 13882 at 2 mg/ml in presence of DM1 at pH 7.2 in absence of IPTG. Type of experiment: functional, organism-based.
Experiment [41] concerns Salmonella typhimurium. Description: Antibacterial activity against Salmonella enterica serovar Typhimurium ATCC 14028 at 2 mg/ml in presence of DM1 at pH 7.2 in absence of IPTG. It counts as functional, organism-based. The conditions noted are these: Salmonella enterica subsp. enterica serovar Typhimurium.
Experiment [42] relates to Salmonella enterica subsp. enterica serovar Virchow. Description: Antibacterial activity against Salmonella enterica serovar Virchow ATCC 5742 at 2 mg/ml in presence of DM1 at pH 7.2 in absence of IPTG. It counts as functional.

`C[C@H](NC(=O)O[C@@H]1O[C@H](CO)[C@@H](O)[C@H](O)[C@H]1O)P(=O)(O)O`: the MIC with Pseudomonas aeruginosa [1] was less than 0.75 µg/mL; in the experiment with Proteus mirabilis [2], greater than 1 µg/mL; in the experiment on Klebsiella pneumoniae [3] it was greater than 1 µg/mL; in the experiment with Cronobacter sakazakii [4] it was less than 0.75 µg/mL; in the experiment with Klebsiella aerogenes [5], less than 0.75 µg/mL; in the experiment on Salmonella typhimurium [6] it was greater than 1 µg/mL. In addition, the minimum inhibitory concentration (MIC) is greater than 1 µg/mL in [7]; less than 0.75 µg/mL with Serratia marcescens [8]; greater than 1 µg/mL in the experiment on Klebsiella aerogenes [9]; less than 0.75 µg/mL with Cronobacter sakazakii [10]; greater than 1 µg/mL in the experiment with Klebsiella pneumoniae [11]; greater than 1 µg/mL in the experiment on Proteus mirabilis [12]. Further, the minimal inhibitory concentration (MIC) was less than 0.75 µg/mL with Pseudomonas aeruginosa [13]; greater than 1 µg/mL in the experiment on Salmonella typhimurium [14]; greater than 1 µg/mL in [15]; 1 µg/mL in the experiment on Serratia marcescens [16]; 1 µg/mL with Klebsiella aerogenes [17]; less than 0.75 µg/mL in the experiment on Cronobacter sakazakii [18]. Also, the MIC in the experiment on Klebsiella pneumoniae [19] was 1 µg/mL; in the experiment with Proteus mirabilis [20], greater than 1 µg/mL; in the experiment with Pseudomonas aeruginosa [21], 1 µg/mL; in the experiment with Salmonella typhimurium [22], greater than 1 µg/mL; in experiment [23], greater than 1 µg/mL; in the experiment on Serratia marcescens [24] it was 1 µg/mL. Also, the MIC with Klebsiella aerogenes [25] was greater than 1 µg/mL; in the experiment on Cronobacter sakazakii [26], 1 µg/mL; in the experiment with Klebsiella pneumoniae [27], greater than 1 µg/mL; in the experiment with Proteus mirabilis [28], greater than 1 µg/mL; in the experiment on Pseudomonas aeruginosa [29], 1 µg/mL; with Salmonella typhimurium [30], greater than 1 µg/mL. The minimal inhibitory concentration (MIC) (in experiment [31]; in the experiment on Serratia marcescens [32]) was greater than 1 µg/mL each time.

Turning to `C[C@H](NC(=O)O[C@@H]1O[C@H](CO)[C@H](O)[C@H](O)[C@H]1O)P(=O)(O)O`, the result (in the experiment with Klebsiella aerogenes [33]; in the experiment with Salmonella typhimurium [36]; in [37]; with Klebsiella aerogenes [38]; with Cronobacter sakazakii [39]; in the experiment on Klebsiella pneumoniae [40]) was inactive. Besides, the outcome (in the experiment with Salmonella typhimurium [41]; in experiment [42]) was inactive. Besides, the outcome with Cronobacter sakazakii [34] and in the experiment on Klebsiella pneumoniae [35] was Active.
